According to ChEMBL document CHEMBL1201862, “PubChem BioAssay data set” (2004):
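All cell lines were grown in 96-well plates and treated with compound for 48 hours. At the GI50, growth is halved.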 Calls of active or inactive are those of the source. No stated cut-off is given here; in the data, active = GI50 up to about 1.1 µM and inactive = higher.

Legend:
Assay in all cases: DTP human tumour cell line panel, 48 h
[1] = tested on: MDA-MB-435
[2] = tested on: NCI-H522
[3] = tested on: SK-MEL-2
[4] = tested on: 786-0
[5] = tested on: OVCAR-4
[6] = tested on: DU-145
[7] = tested on: SF-295
[8] = tested on: COLO 205
[9] = tested on: HT-29
[10] = tested on: RPMI-8226
[11] = tested on: MDA-N
[12] = tested on: A549
[13] = tested on: ACHN
[14] = tested on: U-251
[15] = tested on: OVCAR-8
[16] = tested on: NCI-H460
[17] = tested on: M14
[18] = tested on: SF-268

SMILES | GI50 [1] | GI50 [2] | GI50 [3] | GI50 [4] | GI50 [5] | GI50 [6] | GI50 [7] | GI50 [8] | GI50 [9] | GI50 [10] | GI50 [11] | GI50 [12] | GI50 [13] | GI50 [14] | GI50 [15] | GI50 [16] | GI50 [17] | GI50 [18]
CC[C@@]1(O)C(=O)OCc2c1cc1n(c2=O)Cc2c-1nc1ccccc1c2/C=N/NC(=O)C[N+](C)(C)C | 16.1 µM (inactive) | 2.26 µM (inactive) | > 83.6 µM (inactive) | 0.662 µM (active) | 41.2 µM (inactive) | 0.458 µM (active) | 0.56 µM (active) | 62.4 µM (inactive) | 13.2 µM (inactive) | 4.93 µM (inactive) | 9.62 µM (inactive) | 1.22 µM (inactive) | 0.277 µM (active) | 1.11 µM (active) | 1.98 µM (inactive) | 0.15 µM (active) | 1 µM (active) | 0.45 µM (active)
SC1CCCN(Cc2ccccc2)C1 (stereo not drawn) | 31.6 µM (inactive) | 35.7 µM (inactive) | 36 µM (inactive) | 35.7 µM (inactive) | 56.9 µM (inactive) | > 100 µM (inactive) | 61.1 µM (inactive) | 17.9 µM (inactive) | 21 µM (inactive) | 21.3 µM (inactive) | 59 µM (inactive) | 53.7 µM (inactive) | 74.8 µM (inactive) | 33.4 µM (inactive) | 46.1 µM (inactive) | 23.9 µM (inactive) | 20 µM (inactive) | 65.2 µM (inactive)
CC(=O)c1c2c(cc3c1CC1(C3)Cc3ccc4c(c3C1=O)CCC4)CCC2 (stereo not drawn) | 8.05 µM (inactive) | 0.74 µM (active) | 34.8 µM (inactive) | > 100 µM (inactive) | 23.9 µM (inactive) | 99.3 µM (inactive) | 93.3 µM (inactive) | 11 µM (inactive) | 11.8 µM (inactive) | 13.5 µM (inactive) | 13.8 µM (inactive) | 21.5 µM (inactive) | 65.3 µM (inactive) | 56.9 µM (inactive) | 75.3 µM (inactive) | 38.6 µM (inactive) | 43 µM (inactive) | > 100 µM (inactive)
C[C@H]1C2Cc3cc(N)ccc3[C@@]1(C)CCN2CCc1ccccc1 | 41.9 µM (inactive) | 13.2 µM (inactive) | 50.7 µM (inactive) | 49.9 µM (inactive) | 48.2 µM (inactive) | > 100 µM (inactive) | 27.4 µM (inactive) | 16.8 µM (inactive) | 6.49 µM (inactive) | 33.6 µM (inactive) | 66.2 µM (inactive) | 42.7 µM (inactive) | 41.2 µM (inactive) | 43.8 µM (inactive) | 62.5 µM (inactive) | 33.1 µM (inactive) | 20.9 µM (inactive) | 76 µM (inactive)
CC12CC3OC(=O)C1COC14OC5(C2C1=O)C(O)(CCC1C4CC(O)C2(O)CC=CC(=O)C12C)C(=O)OC35C (stereo not drawn) | 68.4 µM (inactive) | > 100 µM (inactive) | > 100 µM (inactive) | > 100 µM (inactive) | > 100 µM (inactive) | > 100 µM (inactive) | > 100 µM (inactive) | > 100 µM (inactive) | > 100 µM (inactive) | > 100 µM (inactive) | 83.4 µM (inactive) | > 100 µM (inactive) | > 100 µM (inactive) | > 100 µM (inactive) | > 100 µM (inactive) | > 100 µM (inactive) | > 100 µM (inactive) | > 100 µM (inactive)
CC1=C(C(=O)OCCO[N+](=O)[O-])C(c2cccc([N+](=O)[O-])c2)C(C(=O)OC(C)C)=C(C)N1 (stereo not drawn) | 15.2 µM (inactive) | 17.8 µM (inactive) | 13 µM (inactive) | 13.3 µM (inactive) | 3.76 µM (inactive) | 25.3 µM (inactive) | 11.4 µM (inactive) | 10.7 µM (inactive) | 15.2 µM (inactive) | 2.58 µM (inactive) | 14.9 µM (inactive) | 12.9 µM (inactive) | 14.2 µM (inactive) | 14.9 µM (inactive) | 16.1 µM (inactive) | 13.8 µM (inactive) | 16 µM (inactive) | 13.1 µM (inactive)
